Measurements from PMC8184619 (Molecular immunology, 2021).

Key:
Format in all cases: cell-based
[1] = test system: SILv44 TCR-transduced CD8+ Jurkat T cells
[2] = test system: R6C12 TCR-transduced CD8+ Jurkat T cells
[3] = test system: T4H2 TCR-transduced CD8+ Jurkat T cells

`CC[C@H](C)[C@H](N)C(=O)N[C@@H](CC(C)C)C(=O)N[C@@H](CC(=O)O)C(=O)N[C@@H](CCC(N)=O)C(=O)N[C@H](C(=O)N1CCC[C@H]1C(=O)N[C@@H](Cc1ccccc1)C(=O)N[C@@H](CO)C(=O)N[C@H](C(=O)O)C(C)C)C(C)C` [T2Leu] gave an EC50 [1] of 1.4 ± 0.3 µM, an EC50 [2] of 11 ± 3 µM and an EC50 [3] of 0.3 ± 0.1 µM.
